Test results reported in ChEMBL document CHEMBL5233288, “Ginkgo Biflavones Cause p53 Wild-Type Dependent Cell Death in a Transcription-Independent Manner of p53” (J Nat Prod, 2023).
Activity calls are given as the source filed them. The rule behind the calls is not given here.

How the values were obtained:
HCT-116 [1] = assay: Upregulation of acetylated p53 protein expression in human HCT-116 cells expressing wild type p53 at 20 uM incubated for 24 hrs by western blot analysis; format: functional, cell-based
HCT-116 [2] = assay: Induction of apoptosis in human HCT-116 cells expressing wild type p53 assessed as late apoptotic cells at 20 uM incubated for 48 hrs by Annexin V-FITC/PI staining based flow cytometry (reference value: 5.37%); format: functional
HCT-116 [3] = assay: Induction of apoptosis in human HCT-116 cells expressing wild type p53 assessed as viable cells at 20 uM incubated for 48 hrs by Annexin V-FITC/PI staining based flow cytometry (reference value: 82.2%); format: functional; details: read-out: Activity
HCT-116 [4] = assay: Cytotoxicity against human HCT-116 cells assessed as reduction in cell viability at 10 uM incubated for 72 hrs in presence of apoptosis inhibitor, Z-VAD-FMK by resazurin-based analysis; format: functional
[5] = target: Cellular tumor antigen p53 (Homo sapiens) (UniProt P04637); assay: Inhibition of p53 DNA binding activity in human HCT-116 cells assessed as reduction in DNA-protein complex formation at 20 uM incubated for 24 hrs by electrophoretic mobility shift analysis; format: cell-based
LoVo = assay: Cytotoxicity against human LoVo cells expressing wild type p53 assessed as induction of cell death at 20 uM incubated for 72 hrs by resazurin based analysis; format: functional
HCT-116 [6] = assay: Upregulation of p21 protein expression in human HCT-116 cells at 20 uM incubated for 24 hrs by western blot analysis; format: functional, cell-based
HCT-116 [7] = assay: Upregulation of BAX protein expression in human HCT-116 cells at 20 uM incubated for 24 hrs by western blot analysis; format: functional, cell-based
HCT-116 [8] = assay: Induction of apoptosis in human HCT-116 cells expressing wild type p53 assessed as late apoptotic cells at 10 uM incubated for 48 hrs by Annexin V-FITC/PI staining based flow cytometry (reference value: 5.06%); format: functional
[9] = target: Cellular tumor antigen p53 (Homo sapiens) (UniProt P04637); assay: Inhibition of p53 transcriptional activity in human HCT-116 cells assessed as inhibition of protein binding to p21 DNA promoter region at 20 uM incubated for 24 hrs by ChIP analysis; format: cell-based
HCT-116 [10] = assay: Upregulation of p53 protein expression in human HCT-116 cells expressing wild type p53 at 20 uM incubated for 24 hrs by western blot analysis; format: functional, cell-based
HCT-116 [11] = assay: Induction of ferroptosis in human HCT-116 cells assessed as increase in iron content at 20 uM incubated for 24 hrs; format: functional, cell-based
HCT-116 [12] = assay: Antitumor activity against human HCT-116 cells xenografted in BALB/c nude mouse assessed as reduction in tumor weight at 10 mg/kg, ip qd for 12 days; format: functional, organism-based; details: time 12.0 day
[13] = Toxicity against BALB/c nude mouse xenografted with human HCT-116 cells assessed as body weight loss at 10 mg/kg, ip qd for 12 days and measured every 2 days; format: organism-based; details: in vivo, 288 h, time 12 day
HCT-116 [14] = assay: Potentiation of 5-FU-induced antitumor activity against human HCT-116 cells xenografted in BALB/c nude mouse assessed as reduction in tumor weight at 10 mg/kg, ip qd for 12 days and administered with 5-FU at 30 mg/kg, ip once every 3 days for 12 days; format: functional, organism-based; details: time 12.0 day
[15] = Toxicity against BALB/c nude mouse xenografted with human HCT-116 cells assessed as body weight loss at 10 mg/kg, ip qd for 12 days and administered with 5-FU at 30 mg/kg, ip once every 3 days for 12 days and measured every 2 days; format: organism-based; details: in vivo, 288 h, time 12 day
HCT-116 [16] = assay: Antitumor activity against human HCT-116 cells xenografted in BALB/c nude mouse assessed as reduction in tumor volume at 10 mg/kg, ip qd for 12 days and measured every 2 days; format: functional, organism-based; details: time 12.0 day
HCT-116 [17] = assay: Potentiation of 5-FU-induced antitumor activity against human HCT-116 cells xenografted in BALB/c nude mouse assessed as reduction in tumor volume at 10 mg/kg, ip qd for 12 days and administered with 5-FU at 30 mg/kg, ip once every 3 days for 12 days and measured every 2 days; format: functional, organism-based; details: time 12.0 day

Chain of Cellular tumor antigen p53 (Homo sapiens) (P04637 whole entry, looked up): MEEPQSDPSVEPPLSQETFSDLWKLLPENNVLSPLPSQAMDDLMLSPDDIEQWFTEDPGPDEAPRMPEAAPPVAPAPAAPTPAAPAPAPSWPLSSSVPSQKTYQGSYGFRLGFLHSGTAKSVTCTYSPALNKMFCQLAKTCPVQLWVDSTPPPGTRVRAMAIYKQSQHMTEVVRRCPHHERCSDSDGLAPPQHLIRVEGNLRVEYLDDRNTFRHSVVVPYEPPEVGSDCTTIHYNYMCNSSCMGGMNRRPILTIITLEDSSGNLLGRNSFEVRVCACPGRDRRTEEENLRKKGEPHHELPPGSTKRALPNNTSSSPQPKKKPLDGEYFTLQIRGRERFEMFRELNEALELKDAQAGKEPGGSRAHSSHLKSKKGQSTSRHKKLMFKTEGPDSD

| SMILES | Activity (HCT-116 [1]) | Activity (HCT-116 [2]) [%] | viability at 20 µM (HCT-116 [3]) [%] | Activity (HCT-116 [4]) | inhibition [5] | Activity (LoVo) | Activity (HCT-116 [6]) | Activity (HCT-116 [7]) | Activity (HCT-116 [8]) [%] | inhibition [9] | Activity (HCT-116 [10]) | Activity (HCT-116 [11]) | Activity (HCT-116 [12]) | Activity [13] | Activity (HCT-116 [14]) | Activity [15] | Activity (HCT-116 [16]) | Activity (HCT-116 [17]) |
| --- | --- | --- | --- | --- | --- | --- | --- | --- | --- | --- | --- | --- | --- | --- | --- | --- | --- | --- |
| COc1ccc(-c2cc(=O)c3c(O)cc(O)cc3o2)cc1-c1c(O)cc(O)c2c(=O)cc(-c3ccc(O)cc3)oc12 [BILOBETIN] | Active | 6.94 | 52.6 | inactive | Active | Active | inactive | inactive | 3.58 | Active | Active | Active | – | – | – | – | – | – |
| COc1cc(O)c2c(=O)cc(-c3ccc(OC)c(-c4c(O)cc(O)c5c(=O)cc(-c6ccc(O)cc6)oc45)c3)oc2c1 [GINKGETIN] | Active | 10.5 | 55.4 | inactive | Active | Active | inactive | inactive | 5.69 | Active | Active | Active | Active | Non-Toxic | Active | Non-Toxic | Active | Active |
| COc1ccc(-c2cc(=O)c3c(O)cc(O)c(-c4cc(-c5cc(=O)c6c(O)cc(O)cc6o5)ccc4OC)c3o2)cc1 [ISOGINKGETIN] | Active | 9.54 | 49.1 | inactive | Active | Active | inactive | inactive | 2.58 | Active | Active | Active | – | – | – | – | – | – |
